Test results: patent US11234943B2, “Use of reservatrol for the treatment of non-alcoholic fatty liver disease (NAFLD)” (priority 2016, dated 2022)

Experiments:
[1] = tested on: patients with NAFLD; assay: Blood tests in 6-month study of NAFLD patients given resveratrol micronized formulation; format: in vivo, human; parameters: unit not given here
Method: In this study. 50 mg or 200 mg RSV daily were supplemented to the standard treatment of 44 patients with NAFLD for a period of 6 months and the therapeutic efficacy of RSV was investigated. All patients who participated in this process were volunteers and they have provided written consents as well filled out all the required documents. The patients were selected after they were firstly diagnosed with non-alcoholic fatty liver disease. The primary inclusion criterion was evidence of tatty liver on ultrasonography (LS), which is the most commonly, used imaging technique with remarkable sensitivity. The US findings in non-alcoholic fatty liver disease are:
Participants underwent clinical examination, electrocardiogram and abdominal ultrasound. Also, blood tests were carried out and the following parameters were measured: serum glutamic pyruvic transaminase (SGPT), serum glutamic oxaloacetic transaminase (SGOT), Alkaline phosphatase (ALP), gamma-glutamyl transpeptidase (gGT), glucose, total cholesterol levels, high-density lipoprotein (HDL), low-density lipoprotein (LDL), triglycerides (TG), insulin, insulin resistance, liver value, liver depth, kidney value, kidney depth and difference liver-kidney values.
(§1) Then, the patients were divided into two groups (randomly assigned) according to the treatment given to them. 22 patients were given treatment 50 mg RSV micronized formulation, Evelor capsules once daily, (Group A) and 22 patients were given treatment 200 mg RSV micronized formulation, Evelor capsules, once daily, (Group B). The observation period lasted for 6 months. There was a clinical examination, blood tests and an abdominal ultrasound at the beginning of the study (time 1) and in 6 months (time 2). All patients were on low fat diet and they were being followed up by nutritionist.
Two-way ANOVA with interaction (time and group) was used to test whether there are differences among dose levels, time levels and possible interaction among them. However, no significant interactions were discovered and standard two-way ANOVA was used without interactions. Moreover, an independent t-test was conducted to examine whether there were any differences between the values of physiological parameters at the beginning and the end of the study. A p-value<0.001 was considered to indicate a strongly statistically significant difference. The statistical program used was R 3.2.1.

[2] = tested on: subjects with non-alcoholic fatty liver disease; conditions: two 150 mg capsules twice daily for three months, cited from earlier work
[3] = tested on: patients with NAFLD; assay: Adverse reactions during the 6-month study; format: in vivo, human; conditions: 50 mg or 200 mg once daily, 6 months
Method: Quantitative fat measurement, with ultrasound on the liver and kidney, were carried out. There was an initial measurement (time 1) and one after six months (time 2). […] As will be apparent, the results were highly positive, see the difference (Liver value Kidney Value) which is decreased during the time, even 2.5 years after the end of the study.
as §1

[4] = tested on: NAFLD patients; conditions: meta-analysis of four trials, 156 patients, cited from earlier work
[5] = Group A, 50 mg once daily, mean at time 1 (beginning of study)
[6] = Group A, 50 mg once daily, mean at time 2 (6 months)
[7] = Group B, 200 mg once daily, mean at time 1 (beginning of study)
[8] = Group B, 200 mg once daily, mean at time 2 (6 months)

Oc1ccc(/C=C/c2cc(O)cc(O)c2)cc1 [Resveratrol, resveratrol]
ALP [1, 5]: 63.63 | CH [1, 5]: 194.50 | GLU [1, 5]: 105.95 | HDL [1, 5]: 48.60 | Insulin [1, 5]: 13.58 | Insulin Resistance [1, 5]: 1405.81 | LDL [1, 5]: 119.45 | SGOT [1, 5]: 24.95 | SGPT [1, 5]: 36.09 | TG [1, 5]: 132.50 | gGT [1, 5]: 30.95 | ALP [1, 6]: 59.23 | CH [1, 6]: 185.67 | GLU [1, 6]: 96.57 | HDL [1, 6]: 47.67 | Insulin [1, 6]: 12.69 | Insulin Resistance [1, 6]: 1226.04 | LDL [1, 6]: 116.19 | SGOT [1, 6]: 26.33 | SGPT [1, 6]: 37.24 | TG [1, 6]: 109.76 | gGT [1, 6]: 27.00 | ALP [1, 7]: 74.50 | CH [1, 7]: 194.27 | GLU [1, 7]: 121.18 | HDL [1, 7]: 41.14 | Insulin [1, 7]: 12.62 | Insulin Resistance [1, 7]: 1541.04 | LDL [1, 7]: 118.75 | SGOT [1, 7]: 32.81 | SGPT [1, 7]: 47.05 | TG [1, 7]: 205.13 | gGT [1, 7]: 29.20 | ALP [1, 8]: 71.20 | CH [1, 8]: 181.15 | GLU [1, 8]: 112.50 | HDL [1, 8]: 41.70 | Insulin [1, 8]: 13.01 | Insulin Resistance [1, 8]: 1489.52 | LDL [1, 8]: 105.95 | SGOT [1, 8]: 30.90 | SGPT [1, 8]: 41.70 | TG [1, 8]: 167.80 | gGT [1, 8]: 25.35 | alanine aminotransferase ([2]; compared with placebo group): significantly decreased | aspartate aminotransferase ([2]; compared with placebo group): significantly decreased | glucose ([2]; compared with placebo group): significantly decreased | homeostasis model assessment insulin resistance index ([2]; compared with placebo group): significantly decreased | low-density lipoprotein cholesterol ([2]; compared with placebo group): significantly decreased | total cholesterol ([2]; compared with placebo group): significantly decreased | adiponectin level ([2]; resveratrol group): elevation | level of TNF-α ([2]; resveratrol group): significant reductions | level of cytokeratin 18 fragment ([2]; resveratrol group): significant reductions | level of fibroblast growth factor ([2]; resveratrol group): significant reductions | adverse reactions (side effects) [3]: No adverse reactions (side effects) were noted | total cholesterol, mean difference (MD) vs placebo ([4]; 95% CI: 0.18, 0.80, higher in resveratrol groups): 0.49 | low-density lipoprotein, mean difference (MD) vs placebo ([4]; 95% CI: 0.21, 0.74, higher in resveratrol groups): 0.47 | effects on attenuating NAFLD [4]: negligible effects
